Experimental data from patent US10821117B2, “Estrogen therapy for brain gray matter atrophy and associated disability” (The Regents of the University of California, priority 2014, dated 2020).

Legend:
[1] = design: species or system human; settings: in vivo
Description: Safety assessments, including clinical, blood laboratory safety testing and assessments of estriol levels, occurred at months 0, 3, 6, 12, 18, and 24. On study blood tests included complete blood count (CBC) with differential and platelets; chemistry panel including sodium, potassium, creatinine, BUN, glucose, total protein, albumin, bilirubin (total), alkaline phosphatase, AST (SGOT), and ALT (SGPT), and lipid profile (HDL, LDL and triglycerides, cholesterol. Gynecologic exams were done at month 0, 6, 18 and at month 24 exit, with uterine ultrasounds at months 6, 18 and at month 24 exit. Mammograms were done in screening and at month 24 exit. Adverse event analysis was based on the percentage of patients who discontinued the study and the percentage of patients who discontinued the study possibly due to adverse events.
The rate of discontinuation was similar between groups (FIG. 1). A total of 60 patients (73.2%) in the Estriol plus GA group and 56 (73.7%) in the Placebo plus GA group completed the 24 month study treatment duration. Of the 158 patients, 15.8% discontinued the study during the first year (7.6% in the Estriol plus GA group and 8.2% in the Placebo plus GA group), and an additional 10.7% discontinued the study during the second year (6.3% and 4.4%, respectively). […] The most common reasons for discontinuation were lost to follow up or patient's decision based on family issues or time constraints.

[2] = system: multiple sclerosis patients; experiment: Total (whole) brain gray matter volume change on brain MRI, SIENAX segmentation (Example 1); assay type: in vivo, human; settings: over 24 months
Experimental: The effect of estriol treatment as compared to placebo treatment on total (whole) brain gray matter (GM) atrophy was assessed since gray matter atrophy is a surrogate marker for permanent disability in MS. […] The GM volume change from the month 0 scan to the month 12 scan and then the volume change from the month 0 scan to the month 24 scan was calculated.

[3] = system: relapsing remitting multiple sclerosis patients; experiment: 7/24 Spatial Recall Test, proportion with perfect score; assay type: in vivo, human
Experimental: The estriol and placebo subjects were administered the 7/24 Spatial Recall Test periodically throughout the study. A perfect score on the test is 7, and for both treatment groups, the median score was also 7. Therefore, performance was assessed by the proportion of subjects in each group who achieved a perfect score on the test. […] Logistic regression for repeated measurement was used to compare the probability having a perfect score between the two treatment groups, adjusting for age, education level, and baseline recall (Table 7).

[4] = system: relapsing remitting multiple sclerosis patients; experiment: Brain MRI enhancing lesions and brain volumes (pairwise Jacobian integration); assay type: in vivo, human
Experimental: Linear mixed effects model was carried out to compare the percent change in whole gray matter and cortical gray matter between treatment groups. For the exploratory endpoints of EDSS, PASAT, and brain volume measures, linear mixed effects model was used to compare treatment groups at 12 and 24 months. Linear mixed effects model was carried out to evaluate the association between PASAT change and percent brain volume change.
• For Number of Enhancing Lesions, the data in this column are E+GA vs. P+GA mean of lesions number ratio (95% CI) and p-value based on mixed effect negative binomial regression model. • For Lesion Activity on Brain MRI, the data in this column are E+GA vs. P+GA odds ratio (95% CI) and p-value based on mixed effect logistic regression model. MRI Methodologies
Dual-echo fast spin echo: TR10000, TE12/95, 50 slices, 1×1×3 mm. Fluid attenuated inversion recovery (FLAIR): TR10380, TE88, T188, T12500, 50 slices, 1×1×3 mm. Minor changes were allowed to accommodate different platforms and field strengths at each site. MRI data in Dicom format were fully anonymized prior to transfer and then uploaded to the central MRI reading center database. Prior to study onset, each site provided a dummy scan utilizing the standardized sequences for review by the central MRI reading center to verify scan quality and fidelity. Quality control was maintained at each site using standard procedures for clinical scanners (daily phantoms, stability testing). Quarterly phantoms were collected from 12 of the 15 sites, most using the standard American College of Radiology (ACR) phatom. One site upgraded from a Siemens 1.5T to a 3.0T in November 2013, resulting in the acquisition of one month 24 scan on the new scanner. One site upgraded from a Phillips Achieva 3.0T to a Pillips Intera 3.0T after the first subject completed month 24. All subsequent studies were performed on the Intera.
MRI brain, whole gray matter, whole white matter and cortical gray matter volumes were determined using a pairwise Jacobian integration (PJI) method. Pre-processing for structural T1-weighted images included 1) N3 non-uniformity correction, 2) histogram-based intensity normalization, 3) linear standard space registration using ICBM 2009c nonlinear symmetric template, 4) patch-based brain extraction, and 5) lesion-inpainting. Inputs to PJI were a pair of baseline and follow-up pre-processed structural T1-weighed images. The PJI consisted of 1) linear skull-constrained symmetric registration, 2) halfway transformation and resampling, 3) nonlinear symmetric registration using ANTS, and 4) voxelwise Jacobian determinant calculation on the warp field. Whole gray matter and whole white matter tissue masks were generated by SPM8 Segment function. Additional nonlocal means denoising was applied. For whole brain tissue masks, the whole gray matter and whole white matter masks were combined. For cortical gray matter mask, a standard cortical mask was nonlinearly transformed and merged with gray matter mask. The standard template was the ICBM (ICBM 2009c nonlinear symmetric version), and the nonlinear registration was performed by ANTS. Finally, the Jacobian determinants were averaged within the masks for percent volume change in cortical gray matter, whole gray matter, whole white matter, and whole brain.

[5] = negative value indicates improvement
[6] = negative value indicates worsening

Endometrial biopsies performed - (%) [1]: (8) % | Endometrial thickness >8 mm (ultrasound) - (%) [1]: (36) % | Fibrocystic disease on clinical exam, number [1]: 4 | Fibrocystic disease on clinical exam, value in parentheses [1]: (5) | Fibroids (ultrasound) - (%) [1]: (11) % | Mammogram with malignancy [1]: 0 | Vaginal infection - no. of events [1]: occurred more
Substance: glatiramer acetate [Placebo + GA]
Adverse events leading to discontinuation - (%) [1]: (6%) | overall rate of GM atrophy [2]: over 1.0 % per year | Percentage of subjects achieving a perfect score on the 7/24 Spatial Recall Test ([3]; Month 3): 60.8 (45/74) % | Percentage of subjects achieving a perfect score on the 7/24 Spatial Recall Test ([3]; Month 6): 73.2 (52/71) % | Percentage of subjects achieving a perfect score on the 7/24 Spatial Recall Test ([3]; Month 12): 71.4 (45/63) % | Percentage of subjects achieving a perfect score on the 7/24 Spatial Recall Test ([3]; Month 18): 63.6 (35/55) % | Percentage of subjects achieving a perfect score on the 7/24 Spatial Recall Test ([3]; Month 24): 75.0 (42/56) % | 7/24 Spatial Recall Test, Estimated perfect score rate (95% CI) ([3]; logistic regression for repeated measurement, adjusted for age, education level, baseline recall): 69.8 (63.4, 75.5) % | Lesion activity on Brain MRI - proportion of patients with enhancing lesion, Month 12 % (95% CI) ([4]; Month 12): 21.0 (10.8-31.1) % | Lesion activity on Brain MRI - proportion of patients with enhancing lesion, Month 24 % (95% CI) ([4]; Month 24): 14.6 (5.2-23.9) % | cortical gray matter volume change from baseline ([4]; month 12, FIG. 7C, mean percent change from baseline): −0.74% | whole gray matter volume change from baseline ([4]; month 12, FIG. 7D, mean percent change from baseline): −0.68% | Enhancing Lesion Volume, Change from baseline at Mon 12, Mean ± SD [4, 5]: −18.7 ± 184 | Enhancing Lesion Volume, Change from baseline at Mon 12, Median [4, 5]: 0 | Enhancing Lesion Volume, Change from baseline at Mon 24, Mean ± SD [4, 5]: −34.0 ± 120 | Enhancing Lesion Volume, Change from baseline at Mon 24, Median [4, 5]: 0 | Number of Enhancing Lesions, Change from baseline to Mon 12, Mean ± SD [4, 5]: −0.5 ± 1.8 | Number of Enhancing Lesions, Change from baseline to Mon 12, Median [4, 5]: 0 | Number of Enhancing Lesions, Change from baseline to Mon 24, Mean ± SD [4, 5]: −0.5 ± 2.4 | Number of Enhancing Lesions, Change from baseline to Mon 24, Median [4, 5]: 0 | Cortical gray matter volume % change from baseline at Month 12, Mean ± SD [4, 6]: −0.72 ± 0.80% | Cortical gray matter volume % change from baseline at Month 12, Median [4, 6]: −0.67% | Cortical gray matter volume % change from baseline at Month 24, Mean ± SD [4, 6]: −1.04 ± 0.87% | Cortical gray matter volume % change from baseline at Month 24, Median [4, 6]: −0.93% | White matter volume % change from baseline at Month 12, Mean ± SD [4, 6]: −0.20 ± 0.83% | White matter volume % change from baseline at Month 12, Median [4, 6]: −0.11% | White matter volume % change from baseline at Month 24, Mean ± SD [4, 6]: −0.54 ± 1.12% | White matter volume % change from baseline at Month 24, Median [4, 6]: −0.56% | Whole Brain volume % change from baseline at Month 12, Mean ± SD [4, 6]: −0.50 ± 0.64% | Whole Brain volume % change from baseline at Month 12, Median [4, 6]: −0.43% | Whole Brain volume % change from baseline at Month 24, Mean ± SD [4, 6]: −0.78 ± 0.73% | Whole Brain volume % change from baseline at Month 24, Median [4, 6]: −0.91% | Whole gray matter volume % change from baseline at Month 12, Mean ± SD [4, 6]: −0.69 ± 0.71% | Whole gray matter volume % change from baseline at Month 12, Median [4, 6]: −0.68% | Whole gray matter volume % change from baseline at Month 24, Mean ± SD [4, 6]: −0.95 ± 0.76% | Whole gray matter volume % change from baseline at Month 24, Median [4, 6]: −0.93%
